Experimental data from patent publication US9371568B2, “Markers associated with human double minute 2 inhibitors” (Novartis AG, priority 2012, dated 2016).

Columns and labels:
p21(CDKN1A) [1] = assay: p21(CDKN1A) mRNA levels in SJSA-1 tumors (qRT-PCR); assay type: in vivo, mice; conditions: SJSA-1 xenograft, 25-100 mg/kg q24h
Procedure: Briefly, total RNA was purified from cell pellets using the QIAshredder® (79654, Qiagen: Valencia Calif., USA) and RNeasy Mini Kit® (74106, Qiagen: Valencia Calif., USA) according to the manufacturer's instructions, with the exception that no DNA digestion was performed. Total RNA was eluted with 50 μL of RNase-free water. Total RNA was quantitated using the spectrophotometer ND-1000 Nanodrop® (Wilmington Del., USA). The qRT-PCR (Quantitative Reverse Transcriptase Polymerase Chain Reaction) was set up in triplicate per sample using the One-Step RT qPCR Master Mix Plus (RT-QPRT-032×, Eurogentec: Seraing, Belgium), with either control primers and primers for human p21(CDKN1A) (Hs00355782_m1, Applied Biosystems: Carlsbad Calif., USA) or mouse p21(CDKN1A) (Mm00432448_m1, Applied Biosystems: Carlsbad Calif., USA), namely TaqMan Gene Expression kit assays (20× probe dye FAM™ (or VIC)-TAMRA (or MGB); Applied Biosystems: Carlsbad Calif., USA). […] The number of cycles (CT) was determined, 2^−CT values were calculated, and the value normalized by dividing with the 2^−CT value obtained from the Gapdh control. Fold increase over control (i.e. DMSO- or vehicle-treated animals) was calculated and plotted in the bar graph.

[2] = tested on: SJSA-1 osteosarcoma cells; assay: SJSA-1 xenograft tumor growth in nude mice; assay type: in vivo; conditions: 10-day treatment
Procedure: To further validate the predictive biomarkers disclosed in FIG. 3, in vivo human xenograft models either from human primary samples or from cell lines were directly injected and grown in tumors subcutaneously in mice and then assessed for MDM2i sensitivity. All the animals were allowed to adapt for 4 days and housed in a pathogen-controlled environment (5 mice/Type III cage) with access to food and water ad libitum. Animals were identified with transponders. Studies were performed according to procedures covered by permit number 1975 issued by the Kantonales Veterinäramt Basel-Stadt and strictly adhered to the Eidgenössisches Tierschutzgesetz and the Eidgenössische Tierschutzverordnung. […] Tumor volumes (TVol), determined from caliper measurements (using the formula I×w×h×τ/6) were measured three times per week. Tumor response was quantified by the change in tumor volume (endpoint minus starting value in mm^3) as the T/C, i.e.
[formula] In the case of a tumor regression, the tumor response was quantified by the percentage of regression of the starting TVol, i.e.
[formula] The body-weight (BW) of the mice was measured three times per week allowing calculation at any particular time-point relative to the day of initiation of treatment (day 0) of both the percentage change in BW (Δ % BW). […]

COLO 792 cells = assay: Western blot of p53 pathway proteins, COLO 792 insensitive cells; assay type: cell-based; conditions: increasing concentrations, 4 hours
Procedure: (§1) That the biomarkers in Table 2/FIG. 3 are reflective of a functional p53 pathway in MDM2i sensitive cells is verified in FIG. 4. […]. Whole cell lysates were prepared using a cell lysis buffer containing 50 mM Tris-HCl pH 7.5, 120 mM NaCl, 1 mM EDTA, 6 mM EGTA pH 8.5, 1% NP-40, 20 mM NaF, 1 mM PMSF and 0.5 mM Na-Vanadat, proteins were separated on NuPAGE 4-12% Bis-Tris Gel (Invitrogen # NP0322BOX, Lucerne; Switzerland), transferred onto Nitrocellulose Protran® BA 85 membranes (Whatman #10 401 261: Piscataway, N.J., USA) at 1.5 mA/cm^2 membrane for 2 h using a semi-dry blotting system, and immunoblotted with either an anti-phospho-p53 (Ser^15) (1/1000; Cell Signaling Technology #9284: Beverly, Mass., USA) rabbit polyclonal antibody, or an anti-p53 (Ab-6) (Pantropic, clone DO-1,) (1/1000; Calbiochem # OP43 San Diego, Calif., USA), an anti-MDM2 (Ab-1, clone IF2) (1/1000; Calbiochem # OP46), an anti-p21^WAF1(Ab-1, clone EA10) (1/500; Calbiochem # OP64: San Diego, Calif., USA) or an anti-α-Tubulin (Sigma # T5168: St. Louis, Mo., USA) mouse monoclonal antibodies, as indicated. […].

[3] = tested on: SJSA-1, HCT116 p53wt/wt, SAOS2 and HCT116 p53-/- cells; assay: Cell proliferation inhibition assay (YOPRO), p53 wild-type and p53 mutant cell lines; assay type: cell-based; conditions: 72 hours, p53 wild-type vs p53 mutant cell lines
Procedure: Lucern, Switzerland). Briefly, cells are plated in 96-well plates overnight at 37° C. and are treated with increasing concentrations of MDM2i(1) or MDM2i(2) for 72 hours. Cell concentration in each well is then determined using the DNA-interacting fluorescent dye YOPRO according to the manufacturer's instructions and the fluorescent signal is measured using a Gemini-EM standard plate reader (Molecular Devices: Sunnyvale, Calif., USA).

p21(CDKN1A) [4] = assay: p21(CDKN1A) protein levels in SJSA-1 tumors (immunohistochemistry); assay type: in vivo, mice; conditions: SJSA-1 xenograft
Procedure: SJSA-1 xenograft tumors were collected and a 3-4 mm slice out of the middle of the tumor was removed, transferred into pre-labelled histo-cassettes and immersion-fixed in neutral buffered formalin (NBF) 10% (v/v) (pH 6.8-7.2) (J. T. Baker, Winter Garden, Fla., USA), pre-cooled at 4° C. Tumors were then fixed at room temperature for 24 hours, followed by processing in the TPC 15Duo (Tissue Processing Center, Medite) for paraffinization. Subsequently, the tumor slices were embedded in paraffin and from each paraffin block several 3 μm thick sections were cut on a rotary microtome (Mikrom International AG, Switzerland), spread in a 48° C. water-bath, mounted on glass slides (SuperFrost Plus, Thermo Scientific: Waltham Mass., USA), and dried in an oven either at 37° C. overnight or at 60° C. for 30 min. Dry tissue section were processed for immunohistochemistry (IHC) staining. p21(CDKN1A) immunohistochemistry has been performed using the mouse monoclonal antibody clone SX118 from Dako (Cat. No. M7202 Dako: Carpenteria Calif., USA) at a dilution of 1:50. Immunohistochemistry has been performed on a Ventana Discovery XT automated immunostainer using the N-Histofine Mousestain Kit (Nichirei Bioscience Inc, Japan) in combination with the DABMap Kit chromogen system, omitting the SA-HRP solution (Ventana/Roche Diagnostics GmbH, Mannheim, Germany). […]

C3A cells = assay: Western blot of p53 pathway proteins, C3A sensitive cells; assay type: cell-based; conditions: 4 hours
Procedure: as §1

[5] = tested on: human and mouse normal fibroblasts; conditions: cited from earlier work
SJSA-1 osteosarcoma line = conditions: SJSA-1, amplified MDM2 gene; cited from earlier work

| Compound | p21(CDKN1A) mRNA levels in tumors (p21(CDKN1A) [1]) | T/C (tumor growth inhibition) ([2]; 25 mg/kg q24h) | T/C (tumor growth inhibition) ([2]; 50 mg/kg q24h) | phospho-p53 (COLO 792 cells) | tumor cell proliferation [3] | p21(CDKN1A) protein levels in tumors (p21(CDKN1A) [4]) | phospho-p53 (C3A cells; C3A cells, increasing concentrations) | expression of p53 target genes p21(CDKN1A) and MDM2 (C3A cells; C3A sensitive cells) | proliferation of normal fibroblasts [5] | viability of normal fibroblasts [5] | apoptosis (SJSA-1 osteosarcoma line) | proliferation (SJSA-1 osteosarcoma line) |
| --- | --- | --- | --- | --- | --- | --- | --- | --- | --- | --- | --- | --- |
| COc1cc2c(cc1OC(C)C)[C@H](c1ccc(Cl)cc1)N(c1ccc(N(C)C[C@H]3CC[C@H](N4CCN(C)C(=O)C4)CC3)cc1)C(=O)C2 [MDM2i(1)] | significant dose-dependent induction | 50% | 3% | no significant increase | hampering tumor cell proliferation in a p53-dependent manner | significant dose-dependent induction | no significant increase | strong de novo expression | – | – | – | – |
| COc1cc2c(cc1OC(C)C)[C@H](c1ccc(Cl)cc1)N(c1ccc(N(C)C[C@H]3CC[C@H](N4CCNC(=O)C4)CC3)cc1)C(=O)C2 [MDM2i(2)] | – | – | – | – | hampering tumor cell proliferation in a p53-dependent manner | – | – | – | – | – | – | – |
| COc1ccc(C2=N[C@@H](c3ccc(Cl)cc3)[C@@H](c3ccc(Cl)cc3)N2C(=O)N2CCNC(=O)C2)c(OC(C)C)c1 [Nutlin-3] | – | – | – | – | – | – | – | – | proliferation of the cells was slowed | retained their viability | increased apoptosis | reduced proliferation |
